# From US20030206968A1, “Fungicidal mixtures” (priority 1999, published 2003)
# How the values were obtained:
# Type in all cases: in vivo
# Botrytis cinerea = assay: Field test, Botrytis cinerea in vines; conditions: Example 33
# Protocol: (§1) The trials are carried out under greenhouse (Examples 1 to 32) or field conditions (Examples 33 to 40) in residual or curative applications. The fungicides are applied in single treatments, or in a combination comprising an azolopyrimidine of formula I and a compound selected from the classes (A), (B) and (C) as defined above. The compounds are applied in form of an aqueous spray mix obtained from a concentrated formulation or the technical material.
# (§2) For the field study formulated Azolopyrimidine A, B or C and formulated compounds from the classes (A), (B) and (C) were used.
# (§3) Assessments of the diseases took place at the indicated day after the application of the compounds. Per cent infected leaf area infected was evaluated. The efficacy of the compounds/compounds mixtures to control the diseases was calculated by using the formula given above under item 4: […]
# (§4) Synergy was calculated using the % disease control values of specific treatments for the two COLBY formula given hereinabove
# The compounds are applied according to good agricultural practice in the form of an aqueous spray mix obtained from a concentrated formulation or the technical material at a rate of 400 l/ha. The disease control is evaluated according to the formula given for the greenhouse tests. […]
# Blumeria graminis = assay: Field test, Blumeria graminis on wheat; conditions: metconazole 45 g/ha alone, 15 days after application
# Protocol: as §1, §2, §3, §4
# (§5) The compounds are applied according to good agricultural practice in the form of an aqueous spray mix obtained from a concentrated formulation or the technical material at a rate of 400 l/ha. The disease control is evaluated according to the formula given for the greenhouse tests.
# (§6) Fungicidal efficacy of the mixture of (S)-Azolopyrimidine C+cyproconazole in the field against Blumeria graminis on wheat 17 days after application The tank mix was obtained from a SC formulation containing 100 g (S)-Azolopyrimidine C per liter and an EC formulation containing 60 g cyproconazole per liter.
# as §6, with “C+azoxystrobin” for “C+cyproconazole”, “a SC” for “an EC”, “250” for “60”, “azoxystrobin” for “cyproconazole”, “kg.” for “liter.”
# (§7) Fungicidal efficacy of the mixture of Azolopyrimidine A and different cereal fungicides in the field against Blumeria graminis on wheat 15 days after application The tank mix was obtained from an SC formulation containing 100 g Azolopyrimidine A per liter and commercially available formulations of metconazole, epoxiconazole or kresoxim methyl, respectively.
# Rhynchosporium secalis = assay: Greenhouse, Rhynchosporium secalis on barley, 1 day residual; conditions: Example 8; dose rate 100 ppm
# Protocol: as §1
# (§8) 1. Seed is planted in 6 cm diameter plastic pots and maintained in the greenhouse.
# 2. When the primary leaf is fully expanded in the case of cereals or several leaves are present in the case of dicots, formulated test compounds are sprayed with a three nozzle overhead fungicide sprayer to near run-off. […]
# 4. Disease on the foliage as percent leaf area with disease symptoms/signs is evaluated about 7 days after inoculation. […]
# as §3
# Synergy was calculated using the % disease control values of specific treatments for the two COLBY formula given hereinabove […]
# Septoria tritici [1] = assay: Field test, Septoria tritici on wheat
# Protocol: as §1, §2, §3, §4, §5
# Fungicidal efficacy of the mixture of Azolopyrimidine C+metconazole in the field against Septoria tritici on wheat The tank mix was obtained from an EC formulation containing 150 g Azolopyrimidine C per liter and a SL formulation containing 60 g metconazole per liter. The observed and expected efficacies with different rates are given in Table XXXIVa (19 days after application) and Table XXXIVb (25 days after application):
# Fungicidal efficacy of the mixture of (S)-Azolopyrimidine C+kresoxim methyl in the field against Septoria tritici on wheat The tank mix was obtained from a SC formulation containing 100 g (S)-Azolopyrimidine C per liter and a WG formulation containing 500 g kresoxim methyl per kg. The observed and expected efficacies with different rates are given in Tables XXXVa (7 days after application), XXXVb (22 days after application), XXXVc (34 days after application), and XXXVd (41 days after application):
# as §7, with “fungicides” for “fungicides in”, “Septoria tritici” for “Blumeria graminis”, “propiconazole,” for “kresoxim methyl,”
# Puccinia recondita [2] = assay: Greenhouse, Puccinia recondita on wheat, 1 day residual; conditions: Puccinia recondita, Example 11, read-out: Observed Efficacy
# Description: as §1, with “The” for “The trials are carried out under greenhouse (Examples 1 to 32) or field conditions (Examples 33 to 40) in residual or curative applications. The”
# as §8
# (§9) 2. When the primary leaf is fully expanded in the case of cereals or several leaves are present in the case of dicots, formulated test compounds are sprayed with a three nozzle overhead fungicide sprayer to near run-off. Alternatively, a single nozzle overhead track sprayer is used for application of the compounds to cereals at a rate of 200 l/ha. Plants are then allowed to air-dry.
# (§10) 3. Inoculation precedes treatment in the case of curative evaluations and follows treatment in case of residual evaluations. For inoculation of powdery mildew disease, plants are set up on greenhouse benches with bottom watering mats and inoculated by dusting them with conidia from infected plants. Between inoculation and treatment for curative evaluations and between treatment and inoculation for residual evaluations, plants are maintained in the greenhouse with bottom watering.
# (§11) For inoculation of non-powdery mildew diseases, an aqueous spore suspension of the pathogen is applied to the plant and the plants are kept 1-2 days in a moist infection chamber before being returned to the greenhouse where they are maintained by bottom watering.
# (§12) 4. Disease on the foliage as percent leaf area with disease symptoms/signs is evaluated about 7 days after inoculation. In the case of wheat, the tips and bases of the leaves are excluded from the evaluation. [formula]
# (§13) 1. Technical compounds are formulated in a solvent/surfactant system consisting of 5% acetone and 0.05% Tween 20 in deionized water. Compounds are dissolved in acetone prior to addition of the water; the Tween 20 can be added through either the acetone or the water. Dilutions are made using the solvent/surfactant system. Formulated compounds are prepared using deionized water.
# (§14) 2. Two kinds of controls are included: Plants treated with the solvent/surfactant solution and inoculated (Solvent Blank). Untreated plants which are inoculated (Inoculated Control).
# as §3, §4
# Fungicidal efficacy of the mixture of Azolopyrimidine C+metconazole (1 day residual) against Puccinia recondita on wheat The tank mix was obtained from a SC formulation containing 100 g Azolopyrimidine C per liter and an EC containing 100 g metconazole per liter. […]
# Fungicidal efficacy of the mixture of Azolopyrimidine C+fluazinam (1 day residual) against Puccinia recondita on wheat The tank mix was obtained from technical material of Azolopyrimidine C and a SC formulation containing 500 g fluazinam per liter. […]
# Septoria tritici [3] = assay: Greenhouse, Septoria tritici on wheat, 1 day residual; conditions: Example 9
# Protocol: as §1, §8, §9, §10, §11, §12, §13, §14, §3, §4
# Fungicidal efficacy of the mixture of Azolopyrimidine C+metconazole (1 day residual) against Septoria tritici on wheat The tank mix was obtained from a SC formulation containing 100 g Azoplopyrimidine C per liter and an EC containing 100 g metconazole per liter.
# Pyrenophora teres = assay: Greenhouse, Pyrenophora teres on barley, 1 day residual; conditions: Example 10
# Protocol: as §1, §8, §9, §10, §11, §12, §13, §14, §3, §4
# Fungicidal efficacy of the mixture of Azolopyrimidine C+metconazole (1 day residual) against Pyrenophora teres on barley The tank mix was obtained from a SC formulation containing 100 g Azolopyrimidine C per liter and an EC containing 100 g metconazole per liter.
# Puccinia recondita [4] = assay: Field test, Puccinia recondita on wheat; conditions: metconazole 45 g/ha alone, 50 days after application
# Protocol: as §1, §2, §3, §4, §5
# as §7, with “Puccinia recondita” for “Blumeria graminis”, “50” for “15”, “epoxiconazole, propiconazole” for “epoxiconazole”
smiles,measurement,setting,value
"Fc1cccc(Cl)c1-c1c(Cl)nc2ncnn2c1NCC(F)(F)F [Azolopyrimidine B, 5-chloro-6-(2-chloro-6-fluorophenyl)-7-(2,2,2-trifluoroethylamino)-[1,2,4]triazolo[1,5-a]pyrimidine]",Observed Efficacy,Botrytis cinerea; dose rate 250 g/ha,58%
CC1(C)CCC(Cc2ccc(Cl)cc2)C1(O)Cn1cncn1 (stereo not shown) [metconazole],Observed Efficacy,Blumeria graminis,54
same,Observed Efficacy,Rhynchosporium secalis,87%
same,Observed Efficacy,"Septoria tritici [1]; Example 34, 19 days after application, dose rate 15 g/ha",9%
same,Observed Efficacy,"Septoria tritici [1]; Example 34, 19 days after application, dose rate 30 g/ha",36%
same,Observed Efficacy,"Septoria tritici [1]; Example 34, 19 days after application, dose rate 45 g/ha",24%
same,Observed Efficacy,"Septoria tritici [1]; Example 34, 25 days after application, dose rate 15 g/ha",33%
same,Observed Efficacy,"Septoria tritici [1]; Example 34, 25 days after application, dose rate 60 g/ha",48%
same,Observed Efficacy,"Septoria tritici [1]; metconazole 45 g/ha alone, 15 days after application, field, wheat",77
same,pest or weed control at 2 ppm,Puccinia recondita [2]; dose rate 2 ppm,0%
same,pest or weed control at 8 ppm,Puccinia recondita [2]; dose rate 8 ppm,0%
same,pest or weed control at 10 ppm,Puccinia recondita [2]; dose rate 10 ppm,8%
same,pest or weed control at 25 ppm,Puccinia recondita [2]; dose rate 25 ppm,14%
same,pest or weed control at 40 ppm,Puccinia recondita [2]; dose rate 40 ppm,31%
same,pest or weed control at 50 ppm,Puccinia recondita [2]; dose rate 50 ppm,72%
same,pest or weed control at 125 ppm,Puccinia recondita [2]; dose rate 125 ppm,97%
same,Observed Efficacy,Septoria tritici [3]; dose rate 2 ppm,0%
same,Observed Efficacy,Septoria tritici [3]; dose rate 5 ppm,0%
same,Observed Efficacy,Septoria tritici [3]; dose rate 8 ppm,0%
same,Observed Efficacy,Septoria tritici [3]; dose rate 10 ppm,0%
same,Observed Efficacy,Septoria tritici [3]; dose rate 25 ppm,0%
same,Observed Efficacy,Pyrenophora teres; dose rate 10 ppm,4%
same,Observed Efficacy,Pyrenophora teres; dose rate 25 ppm,9%
same,Observed Efficacy,Pyrenophora teres; dose rate 40 ppm,34%
same,Observed Efficacy,Pyrenophora teres; dose rate 125 ppm,68%
same,Observed Efficacy,Pyrenophora teres; dose rate 200 ppm,73%
same,Observed Efficacy,Puccinia recondita [4],75
Cc1cc(C)nc(Nc2ccccc2)n1 [pyrimethanil],Observed Efficacy,Botrytis cinerea; dose rate 500 g/ha,66%
